Assay results: the CheMixHub viscosity set

Experiment: xn = mol fraction of the nth substance listed

Nc1ccccc1 + CCCCOCCO
viscosity [mPa·s]
Details	298 K	303 K	303.15 K	308 K	313 K	318 K
101 kPa, x1 = 0.138	–	–	2.999	–	–	–
101 kPa, x1 = 0.2648	–	–	3.156	–	–	–
101 kPa, x1 = 0.3818	–	–	3.287	–	–	–
101 kPa, x1 = 0.49	–	–	3.4	–	–	–
101 kPa, x1 = 0.5903	–	–	3.486	–	–	–
101 kPa, x1 = 0.6837	–	–	3.553	–	–	–
101 kPa, x1 = 0.7708	–	–	3.614	–	–	–
101 kPa, x1 = 0.8522	–	–	3.666	–	–	–
101 kPa, x1 = 0.9284	–	–	3.707	–	–	–
101.3 kPa, x2 = 0.0995	3.539	2.974	–	2.573	2.238	1.967
101.3 kPa, x2 = 0.1968	3.471	2.915	–	2.528	2.189	1.929
101.3 kPa, x2 = 0.2548	3.448	2.887	–	2.512	2.184	1.922
101.3 kPa, x2 = 0.3024	3.429	2.886	–	2.507	2.16	1.905
101.3 kPa, x2 = 0.3953	3.397	2.86	–	2.482	2.145	1.893
101.3 kPa, x2 = 0.4355	3.39	2.854	–	2.477	2.143	1.892
101.3 kPa, x2 = 0.5146	3.35	2.833	–	2.463	2.123	1.875
101.3 kPa, x2 = 0.5909	3.31	2.805	–	2.438	2.108	1.856
101.3 kPa, x2 = 0.6936	3.219	2.731	–	2.381	2.07	1.827
101.3 kPa, x2 = 0.8002	3.1	2.588	–	2.332	2.02	1.787
101.3 kPa, x2 = 0.8933	2.974	2.545	–	2.259	1.962	1.742

CCCBr + Cc1cc(C)cc(C)c1
308.15 K, 101 kPa
Details	viscosity [mPa·s]
x2 = 0.0819	0.4452
x2 = 0.1828	0.4586
x2 = 0.298	0.4744
x2 = 0.4146	0.4872
x2 = 0.5062	0.4995
x2 = 0.5971	0.5145
x2 = 0.7035	0.5257
x2 = 0.8027	0.541
x2 = 0.8945	0.5538

CCCCOC(=O)c1ccccc1 + CCCCCCCCCCCC
101 kPa
Details	viscosity [mPa·s]
298.15 K, x2 = 0.0369	2.578
298.15 K, x2 = 0.0748	2.463
298.15 K, x2 = 0.1143	2.347
298.15 K, x2 = 0.1505	2.251
298.15 K, x2 = 0.1939	2.149
298.15 K, x2 = 0.2329	2.064
298.15 K, x2 = 0.2775	1.977
298.15 K, x2 = 0.3263	1.893
298.15 K, x2 = 0.3672	1.834
298.15 K, x2 = 0.4144	1.759
298.15 K, x2 = 0.4576	1.702
298.15 K, x2 = 0.5085	1.649
298.15 K, x2 = 0.5525	1.594
298.15 K, x2 = 0.6026	1.549
298.15 K, x2 = 0.6499	1.506
298.15 K, x2 = 0.7176	1.457
298.15 K, x2 = 0.7662	1.428
298.15 K, x2 = 0.8184	1.399
298.15 K, x2 = 0.8852	1.372
308.15 K, x2 = 0.0565	2.041
308.15 K, x2 = 0.0869	1.968
308.15 K, x2 = 0.1399	1.857
308.15 K, x2 = 0.1662	1.807
308.15 K, x2 = 0.2145	1.722
308.15 K, x2 = 0.2546	1.662
308.15 K, x2 = 0.3019	1.596
308.15 K, x2 = 0.3408	1.548
308.15 K, x2 = 0.3915	1.49
308.15 K, x2 = 0.4297	1.451
308.15 K, x2 = 0.4845	1.4
308.15 K, x2 = 0.5231	1.367
308.15 K, x2 = 0.5719	1.328
308.15 K, x2 = 0.6276	1.287
308.15 K, x2 = 0.68	1.256
308.15 K, x2 = 0.7278	1.229
308.15 K, x2 = 0.7842	1.202
308.15 K, x2 = 0.8501	1.176
308.15 K, x2 = 0.9392	1.151
318.15 K, x2 = 0.0245	1.764
318.15 K, x2 = 0.0618	1.688
318.15 K, x2 = 0.101	1.612
318.15 K, x2 = 0.1422	1.543
318.15 K, x2 = 0.181	1.487
318.15 K, x2 = 0.2247	1.427
318.15 K, x2 = 0.2652	1.376
318.15 K, x2 = 0.3117	1.325
318.15 K, x2 = 0.355	1.282
318.15 K, x2 = 0.4033	1.238
318.15 K, x2 = 0.4479	1.202
318.15 K, x2 = 0.5006	1.163
318.15 K, x2 = 0.5557	1.127
318.15 K, x2 = 0.604	1.099
318.15 K, x2 = 0.6185	1.091
318.15 K, x2 = 0.7124	1.045
318.15 K, x2 = 0.7679	1.024
318.15 K, x2 = 0.8278	1.006
318.15 K, x2 = 0.9612	0.974

CCC(O)CO (centres undefined) + CC(C)CO
viscosity [mPa·s], 100 kPa
Details	x2 = 0.1	x2 = 0.201	x2 = 0.3	x2 = 0.4	x2 = 0.5	x2 = 0.6	x2 = 0.698	x2 = 0.8	x2 = 0.899
298.15 K	37.85	28.47	21.1	15.45	10.88	7.762	6.307	5.182	3.998
303.15 K	28.29	21.56	16.11	12.08	8.609	6.351	5.187	4.312	3.375
308.15 K	21.44	16.65	12.67	9.596	7.019	5.289	4.334	3.62	2.873
313.15 K	16.62	13.03	10.31	7.809	5.758	4.449	3.635	3.062	2.473
318.15 K	13.08	10.42	8.093	6.339	4.851	3.692	3.08	2.621	2.141
323.15 K	10.47	8.442	6.689	5.231	3.969	3.154	2.639	2.253	1.855
